The source of these data is PubChem BioAssay (NCI).

Test systems include MDA-MB-435; HT29 colon; MDA-N; LOX IMVI melanoma; SF-295 CNS; MCF7 breast; COLO 205 colon; SW-620 colon; NCI-H460 lung; SF-268 CNS; HS 578T breast.
Common to all, as to assay: inhibition of tumour cell growth, NCI panel, 48 h

Where “and” joins values, the source holds several entries; their conditions need not be identical. Equal entries are not always repeated.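 Protocol summary: plate cells (96-well), add compound at 5 concentrations, incubate 48 h, interpolate endpoints linearly. At the GI50, growth is halved. At the TGI there is no net growth.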

Consider `CCOC(=O)C1CC(O)C(=O)N1C` (stereo not given), for which the TGI in the assay with MDA-MB-435, with HT29 colon, in the assay with MDA-N, in the assay with LOX IMVI melanoma, with SF-295 CNS and with MCF7 breast was above 100 µM each time. The compound also returned a TGI with COLO 205 colon above 100 µM.

In the case of `COC1C=CC23c4cc5c(cc4C(O)OC2CN(C)C3C1)OCO5` (stereo not given), the TGI in the assay on SW-620 colon came to 11.6 µM; in the assay on NCI-H460 lung it was 56.7 µM; with SF-268 CNS, 26.9 µM; in the assay on LOX IMVI melanoma, 6.85 µM; in the assay with SF-295 CNS, 9.59 µM; in the assay on COLO 205 colon it was 2.99 µM.

`N#Cc1c2c(c(Nc3ccc(F)cc3)n3c1nc1ccccc13)CCC2`: the TGI in the assay on MDA-MB-435 is 11 µM; in the assay with HT29 colon it was 3.61 µM; in the assay on SW-620 colon, 5.71 µM; with NCI-H460 lung, 23 µM; with SF-268 CNS, 18.1 µM; in the assay with MDA-N, 9.75 µM. Further, the TGI in the assay with LOX IMVI melanoma is 5.37 µM; in the assay on SF-295 CNS, 18.7 µM; in the assay on MCF7 breast it was 16 µM; in the assay with COLO 205 colon, 14.1 µM.

For the compound `C(=Nc1ccc(-c2nc3ccccc3s2)cc1)c1ccco1`, the TGI in the assay on MDA-MB-435, with HT29 colon, with SW-620 colon, with NCI-H460 lung, in the assay with SF-268 CNS and in the assay on MDA-N was above 100 µM each time. For the same compound, the TGI with LOX IMVI melanoma was above 100 µM; in the assay with SF-295 CNS it was 59.1 µM; with HS 578T breast it was above 100 µM; in the assay with COLO 205 colon it was above 100 µM.

Regarding `OCc1ccccc1C1CSCSC1`, the TGI in the assay with HT29 colon, in the assay on SW-620 colon, in the assay with NCI-H460 lung, with SF-268 CNS, with LOX IMVI melanoma and in the assay on SF-295 CNS was above 100 µM throughout.

For the compound `Cc1cc2cccc(Cl)c2nc1C(=O)c1ccccc1`, the TGI in the assay with SW-620 colon is above 100 µM; with SF-268 CNS, above 100 µM; in the assay on LOX IMVI melanoma, above 100 µM; in the assay with SF-295 CNS, 51.9 µM; with COLO 205 colon it was above 100 µM.

`CC(C)=CC1C(C(=O)O)C1(C)C` (stereo not given): the TGI with HT29 colon, with SW-620 colon, in the assay with NCI-H460 lung, in the assay with SF-268 CNS, in the assay on LOX IMVI melanoma and with SF-295 CNS was above 750 µM each time. The TGI in the assay on MCF7 breast and in the assay on COLO 205 colon was above 750 µM in each case.

Consider `CSc1c(C(=O)Nc2ccc(C)cc2)c(N)[nH]c(=O)c1C#N`, for which the TGI in the assay on MDA-MB-435, with HT29 colon, in the assay with SW-620 colon, in the assay with NCI-H460 lung, with SF-268 CNS and with MDA-N was above 100 µM in each case. The TGI in the assay with LOX IMVI melanoma, in the assay on HS 578T breast, in the assay on MCF7 breast and in the assay on COLO 205 colon was above 100 µM throughout.

`CCOc1ccc(N=C/C=C(\Cl)c2ccc3ccccc3c2)cc1`: the TGI in the assay with MDA-MB-435 amounted to 43.9 µM; with HT29 colon, 33.3 µM; in the assay with SW-620 colon it was 36.5 µM; with NCI-H460 lung, 44.8 µM; with SF-268 CNS, 37.4 µM; in the assay with LOX IMVI melanoma, 15.3 µM. For the same compound, the TGI was 36 µM in the assay on SF-295 CNS, 82.2 µM in the assay on HS 578T breast, 55.1 µM in the assay with MCF7 breast and 37.7 µM in the assay with COLO 205 colon.

Consider `CC(=O)Nc1ccc(Cl)c(Cl)c1`, for which the TGI in the assay with HT29 colon, in the assay on SW-620 colon, in the assay with NCI-H460 lung, in the assay on SF-268 CNS, in the assay on LOX IMVI melanoma and with SF-295 CNS was above 100 µM in each case. In the assay on COLO 205 colon, this compound gave a TGI above 100 µM.

Take `O=c1nc2c(c(-c3cccc(Cl)c3)[nH]1)COC/C2=C\c1cccc(Cl)c1`: the TGI in the assay on MDA-MB-435, with SW-620 colon, with NCI-H460 lung, in the assay on SF-268 CNS, with MDA-N and with LOX IMVI melanoma was above 100 µM in each case. In addition, the TGI in the assay on SF-295 CNS, in the assay with HS 578T breast, in the assay on MCF7 breast and in the assay with COLO 205 colon was above 100 µM in each case.

`CC1=C2c3ccccc3N(C(=O)/C=C/C(=O)O)[C@H]2[C@H]2C(=O)OC(=O)[C@H]2C1`: the TGI in the assay with MDA-MB-435, with HT29 colon, in the assay with SW-620 colon, in the assay with NCI-H460 lung, in the assay with SF-268 CNS and with MDA-N was above 10 µM throughout. In addition, the TGI with SF-295 CNS, with HS 578T breast, in the assay on MCF7 breast and in the assay on COLO 205 colon was above 10 µM each time.

For `COC(=O)C1CC(C=[N+](C)C)=C(SC)N1` (stereo not given), the TGI in the assay on MDA-MB-435, in the assay with HT29 colon, in the assay on SW-620 colon, in the assay with NCI-H460 lung, with SF-268 CNS and in the assay on MDA-N was above 100 µM throughout. In addition, the TGI with SF-295 CNS, with HS 578T breast, in the assay with MCF7 breast and in the assay on COLO 205 colon was above 100 µM each time.

As for `O=C1C(Cl)N(c2ccccc2)C1c1c[nH]c2ccccc12` (stereo not given), the TGI in the assay on HT29 colon, in the assay with SW-620 colon, in the assay with NCI-H460 lung, in the assay on SF-268 CNS, in the assay on SF-295 CNS and in the assay with COLO 205 colon was above 100 µM throughout.

For `COc1cc2c(cc1OC)C(=O)/C(=C/c1cc(C)c(O)c(C)c1)C2`, the TGI is above 100 µM in the assay with SW-620 colon; above 100 µM with NCI-H460 lung; above 100 µM with SF-268 CNS; above 47.3 µM in the assay with LOX IMVI melanoma; above 100 µM in the assay with HS 578T breast; above 100 µM in the assay with MCF7 breast. Besides, in the assay on COLO 205 colon, the TGI was above 100 µM.

In the case of `O=C(OCc1ccccc1)OOC(=O)OCc1ccccc1`, the TGI in the assay on HT29 colon, in the assay on SW-620 colon, in the assay with NCI-H460 lung, in the assay with SF-268 CNS, with SF-295 CNS and with COLO 205 colon was above 100 µM in each case.

For the compound `COc1ccc(CNc2nc3ccc(C(F)(F)F)cc3nc2-c2ccccc2)cc1OC`, the TGI with HT29 colon, in the assay with SW-620 colon, in the assay with NCI-H460 lung, in the assay with SF-268 CNS, in the assay on LOX IMVI melanoma and in the assay on SF-295 CNS was above 100 µM each time. In addition, the TGI in the assay with COLO 205 colon is above 100 µM.

Turning to `c1ccc(N=c2snc(-c3ccccc3)s2)cc1`, the TGI in the assay with SW-620 colon, in the assay on NCI-H460 lung, with SF-268 CNS and in the assay on COLO 205 colon was above 100 µM in each case.

In the case of `CC(C)CCNC(=O)c1ccc(CNC(=O)/C=C/c2ccc(OCc3ccccc3)cc2)cc1`, the TGI in the assay on MDA-MB-435, in the assay with HT29 colon, in the assay on SW-620 colon, in the assay on NCI-H460 lung, with SF-268 CNS and with MDA-N was above 100 µM throughout. Moreover, the TGI with LOX IMVI melanoma, with SF-295 CNS, in the assay on MCF7 breast and with COLO 205 colon was above 100 µM in each case.

Regarding `Cc1nc(Cl)c(CBr)c(Cl)n1`, the TGI in the assay with MDA-MB-435 was 3.3 µM; with NCI-H460 lung, 8.38 µM; with SF-268 CNS it was 8.85 µM; in the assay on MDA-N it was 2.97 µM; with LOX IMVI melanoma it was 1.77 µM; with SF-295 CNS it was 22.9 µM. Also, the TGI is 5.94 µM with HS 578T breast, 2.17 µM with MCF7 breast and 3.15 µM in the assay with COLO 205 colon.

Turning to `Cc1cccc(N(CCC#N)S(=O)(=O)c2ccccc2)c1`, the TGI with MDA-MB-435, with HT29 colon, with SW-620 colon, with NCI-H460 lung, in the assay with SF-268 CNS and in the assay with MDA-N was above 100 µM each time. For the same compound, the TGI in the assay with LOX IMVI melanoma, with HS 578T breast, in the assay with MCF7 breast and with COLO 205 colon was above 100 µM throughout.

As to `COc1cc([C@@H]2c3cc4c(cc3C[C@H]3COC(=O)[C@@H]32)OCO4)cc(OC)c1OC`, the GI50 in the assay with HT29 colon was 0.00294 µM and 0.00647 µM; in the assay on SW-620 colon it was 0.00336 µM; with NCI-H460 lung, 0.00327 µM and < 0.005 µM; with SF-268 CNS it was 0.00581 µM; with LOX IMVI melanoma, 0.00281 µM and 0.005 µM; in the assay with SF-295 CNS, 0.00296 µM. In addition, the GI50 is 0.00506 µM with MCF7 breast; 0.00627 µM and 0.0092 µM in the assay on COLO 205 colon. Further, the TGI in the assay with SW-620 colon was above 50 µM; in the assay on NCI-H460 lung, below 0.005 µM; in the assay with SF-268 CNS it was above 50 µM; in the assay with MDA-N, 0.00582 µM; in the assay on LOX IMVI melanoma, above 50 µM; in the assay on SF-295 CNS, 0.00833 µM. For the same compound, the results for the TGI with HS 578T breast, in the assay with MCF7 breast and in the assay with COLO 205 colon were 0.00715 µM, 2.03 µM and 0.028 µM, respectively.

Consider `CC(C)(CO)N1C(=O)c2ccccc2C1(O)c1ccc(Cl)cc1` (stereo not given), for which the TGI in the assay on MDA-MB-435, in the assay on HT29 colon, in the assay on SW-620 colon, with NCI-H460 lung, with SF-268 CNS and with MDA-N was above 100 µM in each case. For the same compound, the TGI in the assay with SF-295 CNS, with HS 578T breast, in the assay with MCF7 breast and in the assay on COLO 205 colon was above 100 µM each time.
